Laboratory results from patent publication US20140161827A1, “COMPOSITIONS AND METHODS FOR TREATING CANCER” (University of Virginia Patent Foundation, priority 2011, published 2014).
Where a SMILES comes first, the peptide text is derived from it. The star is where a group is joined. Cbz = O=C(OCc1ccccc1)*; CH2F = FC*

Key:
MCF-7-5C cells = assay: Apoptosis in MCF-7-5C cells, E2 and T-DM-1 alone and in combination; type: cell-based; settings: agent alone
LTED cells [1] = assay: Levels of apoptotic proteins in treated LTED cells (immunoblot of cytosolic and mitochondrial fractions, immunoprecipitation); type: cell-based, human; settings: for Mcl-1 level: FTS 75 μM 0-48 h (by 24 h) or estradiol 0-48 h; for Bim level (BimEL, BimL): FTS 75 μM 0-48 h or estradiol 0-48 h (early time points 4, 8 h); for Survivin level: FTS 75 μM (from 8 to 16 h, undetectable at 24 and 48 h) or estradiol; for Phospho JNK level: FTS 75 μM over 48 hours or estradiol; for Cytochrome c level in the cytosol / Smac (Smac/Diablo) level in the cytosol: FTS at 24 and 48 h, estradiol by 48 h
Method: The inventors herein initially examined the class of proteins which influences MOMP (mitochondrial outer membrane pore) formation, a key component of the intrinsic pathway of apoptosis. Pro-apoptotic members such as Bax, Bim, and Bak, promote the release of Cytochrome c from the mitochondria, whereas anti-apoptotic members, such as Bcl-2 and Mcl-1, prevent release. The balance of pro-apoptotic and anti-apoptotic Bcl-2 proteins therefore influences the fate of the cell. LTED cells were treated with 75 μM FTS for 0, 4, 8, 16, 24 and 48 h with examination of cytosolic fractions (FIG. 1A).
To ascertain whether Bax was activated in FTS-treated LTED cells, Bcl-2 was immunoprecipitated and then probed for Bim and Bax (See FIG. 1B). Probed cell extracts were probed with the use of an antibody that recognizes only the conformationally altered Bax protein. […] The pro-apoptotic effect of Bim is predominantly through its binding to Bcl-2 that ablates Bcl-2 pro-survival function. As shown in FIG. 1B we found the interaction between Bim and Bcl-2 is increased, whereas the interaction between Bax and Bcl-2 was reduced. As evidence of the exodus of proteins through mitochondrial membrane pores, Cytochrome c and Smac levels in the cytosol were increased at 24 and 48 h, times when Mcl-1 was decreased and Bim, increased (FIG. 1A). […] After showing these effects on MOMP, other key factors involved in apoptosis were examined.
Cells were treated with estradiol for 0, 2, 4, 8, 24 and 48 h and cytosolic fractions prepared. […] Mitochondrial fractions (FIG. 1D, right panel), confirmed the increase in Bim isoforms. […] Because Bim appeared to be critical for estradiol-mediated apoptosis, we carried out a titration of E2, probed for Bim and found it increased over time (See FIG. 1E).
Cells grown in 100 mm dishes were washed with cold PBS and extracted with 1 ml lysis buffer (50 mM Tris-HCl, 150 mM NaCl, 5 mM EDTA, 25 mM NaF, 2 mM NaVO4, 5% glycerol, 1% Triton X-100, 10 μg/ml leupeptin, aprotinin, and pepstatin). Samples were incubated on ice for 30 min, sonicated, and centrifuged at 14,000 rpm for 10 min at 4° C. Supernatants containing 0.5 mg total protein were incubated with antibody against the target protein at 4° C. overnight before addition of 40 μl Protein G beads (Invitrogen) and continued incubation at 4° C. for 2 h. The protein G beads with immunocomplex were centrifuged at 14,000 rpm for 20 sec. The supernatant was carefully removed. The beads were washed twice with 1 ml buffer II (20 mM MOPS, 2 mM EGTA, 5 mM EDTA, 25 mM NaF, 40 mM β-glycerophosphate, 10 mM sodium pyrophosphate, 2 mM NaVO4, 0.5% Triton X-100, 1 mM PMSF, 10 μg/ml leupeptin, aprotinin, and pepstatin) and then boiled in 50 μl 2× Laemmli's buffer. The samples were subjected to electrophoresis in 10% SDS polyacrylamide gel followed by immunoblotting.

LTED cells [2] = assay: FTS-induced apoptosis and caspase involvement in LTED cells; type: cell-based, human
Method: FTS has been reported to invoke cell death through caspase activation in non-breast tissues. To address whether FTS was promoting death of breast cancer cells by activation of caspases LTED cells were treated with either vehicle, FTS, or FTS in the presence of increasing concentrations of the pan-caspase inhibitor z-VAD-fmk (See FIG. 1C top panel). […] Caspase-8 activity does appear to increase; however this is not inhibited by Z-IETD-FMK. See FIG. 2, showing a time course bar graph (2A) and a cell viability versus concentration curve (2B) displaying (FIG. 2A) the effect of FTS and curcumin in combination on wild type MCF-7 cells; and (FIG. 2B) the effect of FTS alone or in combination with curcumin on MCF-7 cell viability.

[3] = system: LTED (long-term estrogen deprived) cells; assay: Growth inhibition and drug interaction assay (nuclei count, combination index), LTED; type: cell-based, human
Method: When the combination index is equivalent to one (CI=1), this means the two drugs work together in an additive manner. […] The effective dose one (D1) is then plotted on the x-axis and the effective dose two (D2) was plotted on the y-axis. The plotting of the effective dose (ED) can be is done at Fa equals 0.5, 0.75, 0.9 and 0.95. This generates the isobologram.
Cells were plated in six-well plates at a density of 60,000 cells per well. Two days later, the cells were treated in triplicate as described in the descriptions of the figures. At the end of treatment, cells were rinsed twice with saline. Nuclei were prepared by sequential addition of 1 mL HEPES-MgCl2 solution (0.01 mol/L HEPES and 1.5 mmol/L MgCl2) and 0.1 mL ZAP solution [0.13 mol/L ethylhexadecyldimethylammonium bromide in 3% glacial acetic acid (v/v)] and were counted using a Coulter counter (BeckmanCoulter, Inc., Fullerton, Calif.). […] The combination index and values with a mean and standard deviation were calculated using the Monte Carlo simulation using the computer software CalcuSyn from Biosoft (Cambridge, U.K.) [10].
The nature of the interaction between the agents was evaluated by the combination index method of Chou and Talalay [8,9]. […]
Where D is the dose that yields x % growth inhibition and α=0 for mutually exclusive drugs and α=1 for mutually non-exclusive drugs. Synergy as calculated and defined by the CalcuSyn software as a CI<1; additivity is CI=1 and antagonism is CI>1[10].

MCF-7 cells = assay: Growth inhibition and drug interaction assay (nuclei count, combination index), MCF-7; type: cell-based; settings: Homo sapiens, MCF7, FIG. 3, read-out: concentration with 50% inhibitory effect
From the text: We examined some of these agents in both the non-adapted cell lines (See FIGS. 4, 6, 8) and adapted cell lines (See FIGS. 5, 7, 9). We treated breast cancer cells with increasing concentrations of the individual drugs followed by testing with their combinations. We determined the number of cells that were killed (fraction affected, fa) and the number of cells that were not affected by the drug (fraction unaffected, fu) (See FIG. 4). Then dose effect curves are transformed into their corresponding linear forms by the median-effect plot where y=log(fa/fu) vs. x=log (D)[8,34]. From the median effect plot the combination index (CI) can be determined. […]
Cells were plated in six-well plates at a density of 60,000 cells per well. […] Nuclei were prepared by sequential addition of 1 mL HEPES-MgCl2 solution (0.01 mol/L HEPES and 1.5 mmol/L MgCl2) and 0.1 mL ZAP solution [0.13 mol/L ethylhexadecyldimethylammonium bromide in 3% glacial acetic acid (v/v)] and were counted using a Coulter counter (BeckmanCoulter, Inc., Fullerton, Calif.). […] The combination index and values with a mean and standard deviation were calculated using the Monte Carlo simulation using the computer software CalcuSyn from Biosoft (Cambridge, U.K.).
The nature of the interaction between the agents was evaluated by the combination index method of Chou and Talalay. […]

[4] = FTS-treated LTED cells, Bcl-2 immunoprecipitation

## C[C@]12CC[C@@H]3c4ccc(O)cc4CC[C@H]3[C@@H]1CC[C@@H]2O [E2, 17β-Estradiol]
MCF-7-5C cells
  induction of apoptosis: induced apoptosis
LTED cells [1]; LTED cells
  Mcl-1 level: decreased
  Bim level (BimEL, BimL): increased
  Survivin level: not
  Phospho JNK level: increased
  Cytochrome c level in the cytosol: released into the cytosol
  Smac (Smac/Diablo) level in the cytosol: released into the cytosol
LTED cells [1]; LTED cells, titration of E2
  Bok level: increased in a concentration-dependent manner

## CC(C)=CCC/C(C)=C/CC/C(C)=C/CSc1ccccc1C(=O)O [FTS, S-trans, trans-Farnesylthiosalicyclic acid]
LTED cells [2]; FTS-treated LTED cells
  caspase-8 changes (death receptor pathway): no substantial caspase-8 changes
LTED cells [1]; FTS-treated LTED cells
  Apoptosis inducing factor (AIF) in the cytosol: appeared in the cytosol only at 48 h
LTED cells [1]; [4]
  interaction between Bax and Bcl-2: reduced
  interaction between Bim and Bcl-2: increased
LTED cells [1]; FTS-treated LTED cells, conformation-specific antibody
  Bax activation (conformationally altered Bax): underwent a conformational change
LTED cells [1]; LTED cells
  Mcl-1 level: decrease
  Bim level (BimEL, BimL): increase
  Survivin level: decreased
  Phospho JNK level: increased
  Cytochrome c level in the cytosol: increased
  Smac (Smac/Diablo) level in the cytosol: increased
LTED cells [1]; LTED cells, FTS 75 μM 0-48 h, cytosolic fractions
  Bcl-2 level: unchanged
LTED cells [1]; LTED cells, FTS 75 μM or estradiol
  XIAP level: did not change
LTED cells [1]; LTED cells, FTS 75 μM, from 4 h to 48 h
  p21 level: steady decrease
[3]; FTS alone, doses 25, 50, 75 and 100 μM
  cell number: 14 % of control

## CC[C@@H](C(=O)[C@@H](C)[C@@H](O)[C@H](C)[C@@H]1O[C@@H]([C@@H](CC)C(=O)O)CC[C@@H]1C)[C@H]1O[C@]2(C=C[C@@H](O)[C@]3(CC[C@@](C)([C@H]4CC[C@](O)(CC)[C@H](C)O4)O3)O2)[C@H](C)C[C@@H]1C [Salinomycin]
MCF-7 cells
  IC50: 2000 nM

## COc1cc(/C=C/C(=O)CC(=O)/C=C/c2ccc(O)c(OC)c2)ccc1O [curcumin]
[3]; dose response, preliminary studies
  concentration at which initial effects in reducing cell number were observed: 250 nM
[3]; later studies
  concentration showing effects in reducing cell number, later studies: 125 nM

## COC(=O)C[C@H](NC(=O)[C@H](C)NC(=O)[C@@H](NC(=O)OCc1ccccc1)C(C)C)C(=O)CF [z-VAD-fmk] (Cbz-Val-Ala-Asp(OMe)-CH2F)
LTED cells [2]; LTED cells, FTS plus increasing concentrations of pan-caspase inhibitor
  effect on FTS-induced apoptosis: blocked

## T-DM1
MCF-7-5C cells
  induction of apoptosis: induced apoptosis
